Counter-ions that a name gives are not always drawn. Like-named read-outs stand apart in the source and are kept apart here.
Tests used:
USP24 = USP24 (Homo sapiens, UniProt Q9UPU5); experiment: in vitro enzyme assay of pure recombinant USP24 protein with biotin-tetra-ub as the substrate; format: biochemical; conditions: for catalytic activity of recombinant purified USP24 proteins: biotin-tetra-ub substrate, FIG. 4C / 6C
Source text: FIG. 4C illustrates the result of in vitro enzyme assay of the enzyme activity of USP24 pure recombinant USP24 protein with biotin-tetra-ub as the substrate in the absence or presence of USP24 inhibitor according to several embodiments of the present invention.
FIG. 6C illustrates the result of in vitro enzyme assay of the enzyme activity of USP24 pure recombinant USP24 protein with biotin-tetra-ub as the substrate in the absence or presence of USP24 inhibitor according to several embodiments of the present invention.

[1] = cytotoxicity of HCC827-GR cells treated with or without USP24 inhibitor under various concentrations of Gefitinib; conditions: human
HCC827-GR cells = experiment: as above
[2] = tested on: USP24 substrates, Bax and BRD7, in A549 cells; experiment: protein levels of USP24 substrates in A549 cells treated with USP24 inhibitor candidates (Western blotting); format: cell-based, human; conditions: for levels of Bax, BRD7 / level of p300: A549 cells; for levels of Bax, BRD7: FIG. 4B; for level of p300: FIG. 4D
Source text: FIG. 4B illustrates a bar diagram showing the relative protein levels of USP24 substrates, Bax and BRD7, in A549 cells treated with various USP24 inhibitor candidates according to several embodiments of the present invention.
FIG. 4D illustrates the result of Western blotting assay with anti-Ubiquitin antibodies for evaluating the ubiquitination of p300 in A549 cells with or without USP24 overexpression or USP24 inhibitor according to an embodiment of the present invention.
Human lung adenocarcinoma epithelial cell line A549 and other lung cancer cell lines were cultured with RPMI 1640 medium (Invitrogen) containing 10% fetal bovine serum (FBS), 100 μg/ml streptomycin and 100 U/ml penicillin G sodium. All cells were incubated at 37° C. with 5% CO2. For transfecting plasmid, Polyjet (SignaGen) was used according to manufacturer's instructions.

USP7 = USP7 (Homo sapiens, UniProt Q93009); experiment: catalytic activity of USP7; format: biochemical; conditions: data not shown
USP10 = USP10 (Homo sapiens, UniProt Q14694); experiment: catalytic activity of USP10; format: biochemical; conditions: data not shown
lung cancer = lung cancer migratory ability; format: cell-based; conditions: data not shown
T24 cells [3] = experiment: taxol concentration inside cells evaluated by LC/MS/MS; format: cell-based, human
Source text: FIG. 2H illustrates the images of the taxol concentration inside cells evaluated by LC/MS/MS with or without USP24 knockdown according to an embodiment of the present invention.
FIG. 4J illustrates the concentration of taxol inside cells treated with USP24 inhibitor evaluated by LC/MS/MS according to an embodiment of the present invention.
FIG. 6B illustrates the profiles of the taxol concentration in the taxol-resistant T24 cells treated with USP24-i101 (the upper panel) or DMSO (lower panel) detected by LC/MS/MS analysis according to an embodiment of the present invention.

USP9x = USP9x (Homo sapiens, UniProt Q93008); experiment: catalytic activity of USP9x; format: biochemical; conditions: data not shown
T24 cells [4] = experiment: cytotoxicity of T24 cells in the treatment of taxol with or without USP24 inhibitor; format: cell-based, human; conditions: FIG. 4E
Source text: (§1) FIG. 4E(a) to 4F(c) illustrate the results of the cytotoxicity of T24 cells [FIGS. 4E(a) and 4E(b)], TMZR [FIG. 4F(a)], Hone-1 CPT-R [FIG. 4F(b)] and HCT116OX5 [FIG. 4F(c)] treated with or without USP24 inhibitor according to several embodiments of the present invention.
FIG. 6A(a) to 6A(b) illustrate the results of the cytotoxicity of T24 cells in the treatment of taxol with or without USP24 inhibitor treatment according to an embodiment of the present invention.

TMZR = experiment: cytotoxicity of TMZR cells treated with or without USP24 inhibitor; format: cell-based; conditions: FIG. 4F(a)
Source text: as §1

Hone-1 CPT-R = experiment: cytotoxicity of Hone-1 CPT-R cells treated with or without USP24 inhibitor; format: cell-based; conditions: FIG. 4F(b)
Source text: as §1

HCT116OX5 = experiment: cytotoxicity of HCT116OX5 cells treated with or without USP24 inhibitor; format: cell-based; conditions: HCT116OX5, FIG. 4F(c)
Source text: as §1

P-gp = experiment: Western blotting of the level and protein stability of P-gp in T24 treated with USP24 inhibitor; format: cell-based, human; conditions: T24 cells
Source text: FIG. 4G(a) to 4H(b) illustrate the results of Western blotting assay of the level and protein stability of P-gp in T24 treated with USP24 inhibitor according to an embodiment of the present invention.

T24 cells [5] = experiment: sphere formation of T24 cells with or without USP24 inhibitor; format: cell-based, human
Source text: FIGS. 41(a) and 41(b) illustrate the results of the sphere formation of T24 cells with or without USP24 inhibitor treatment according to an embodiment of the present invention.

T24 = experiment: tumor size of T24 injected into SCID mice treated with taxol and USP24 inhibitor; format: in vivo; conditions: combined with taxol
Source text: (§2) FIGS. 4K(a) and 4K(b) illustrate the results of the tumor size of T24 injected into SCID mice treated with taxol and USP24 inhibitor in the indicated time according to an embodiment of the present invention.
The experiments related with animals were approved by the Institutional Animal Care and Use Committee (IACUC) at National Cheng Kung University (NCKU). These transgenic mice were generated in National Laboratory Animal Center (NLAC, Taiwan, Tainan). After breeding, two-month-old transgenic mice were used to study lung cancer development. Caging was provided suitable space and accommodates appropriate population densities that allow animals' sufficient freedom of movement. To provide amounts of food that must be for transgenic mice normal growth, and maintenance of normal body weight. These transgenic mice were accessed to fresh and uncontaminated drinking water. Transgenic mice were also observed and cared at least for two to three times per week. All methods involving animals were performed in accordance with the relevant guidelines and regulations.

EMT markers = experiment: EMT markers; format: cell-based
[6] = body weight of SCID mice treated with taxol and USP24 inhibitor; format: in vivo; conditions: data not shown
Source text: as §2

USP24, sequence (Q9UPU5 whole entry): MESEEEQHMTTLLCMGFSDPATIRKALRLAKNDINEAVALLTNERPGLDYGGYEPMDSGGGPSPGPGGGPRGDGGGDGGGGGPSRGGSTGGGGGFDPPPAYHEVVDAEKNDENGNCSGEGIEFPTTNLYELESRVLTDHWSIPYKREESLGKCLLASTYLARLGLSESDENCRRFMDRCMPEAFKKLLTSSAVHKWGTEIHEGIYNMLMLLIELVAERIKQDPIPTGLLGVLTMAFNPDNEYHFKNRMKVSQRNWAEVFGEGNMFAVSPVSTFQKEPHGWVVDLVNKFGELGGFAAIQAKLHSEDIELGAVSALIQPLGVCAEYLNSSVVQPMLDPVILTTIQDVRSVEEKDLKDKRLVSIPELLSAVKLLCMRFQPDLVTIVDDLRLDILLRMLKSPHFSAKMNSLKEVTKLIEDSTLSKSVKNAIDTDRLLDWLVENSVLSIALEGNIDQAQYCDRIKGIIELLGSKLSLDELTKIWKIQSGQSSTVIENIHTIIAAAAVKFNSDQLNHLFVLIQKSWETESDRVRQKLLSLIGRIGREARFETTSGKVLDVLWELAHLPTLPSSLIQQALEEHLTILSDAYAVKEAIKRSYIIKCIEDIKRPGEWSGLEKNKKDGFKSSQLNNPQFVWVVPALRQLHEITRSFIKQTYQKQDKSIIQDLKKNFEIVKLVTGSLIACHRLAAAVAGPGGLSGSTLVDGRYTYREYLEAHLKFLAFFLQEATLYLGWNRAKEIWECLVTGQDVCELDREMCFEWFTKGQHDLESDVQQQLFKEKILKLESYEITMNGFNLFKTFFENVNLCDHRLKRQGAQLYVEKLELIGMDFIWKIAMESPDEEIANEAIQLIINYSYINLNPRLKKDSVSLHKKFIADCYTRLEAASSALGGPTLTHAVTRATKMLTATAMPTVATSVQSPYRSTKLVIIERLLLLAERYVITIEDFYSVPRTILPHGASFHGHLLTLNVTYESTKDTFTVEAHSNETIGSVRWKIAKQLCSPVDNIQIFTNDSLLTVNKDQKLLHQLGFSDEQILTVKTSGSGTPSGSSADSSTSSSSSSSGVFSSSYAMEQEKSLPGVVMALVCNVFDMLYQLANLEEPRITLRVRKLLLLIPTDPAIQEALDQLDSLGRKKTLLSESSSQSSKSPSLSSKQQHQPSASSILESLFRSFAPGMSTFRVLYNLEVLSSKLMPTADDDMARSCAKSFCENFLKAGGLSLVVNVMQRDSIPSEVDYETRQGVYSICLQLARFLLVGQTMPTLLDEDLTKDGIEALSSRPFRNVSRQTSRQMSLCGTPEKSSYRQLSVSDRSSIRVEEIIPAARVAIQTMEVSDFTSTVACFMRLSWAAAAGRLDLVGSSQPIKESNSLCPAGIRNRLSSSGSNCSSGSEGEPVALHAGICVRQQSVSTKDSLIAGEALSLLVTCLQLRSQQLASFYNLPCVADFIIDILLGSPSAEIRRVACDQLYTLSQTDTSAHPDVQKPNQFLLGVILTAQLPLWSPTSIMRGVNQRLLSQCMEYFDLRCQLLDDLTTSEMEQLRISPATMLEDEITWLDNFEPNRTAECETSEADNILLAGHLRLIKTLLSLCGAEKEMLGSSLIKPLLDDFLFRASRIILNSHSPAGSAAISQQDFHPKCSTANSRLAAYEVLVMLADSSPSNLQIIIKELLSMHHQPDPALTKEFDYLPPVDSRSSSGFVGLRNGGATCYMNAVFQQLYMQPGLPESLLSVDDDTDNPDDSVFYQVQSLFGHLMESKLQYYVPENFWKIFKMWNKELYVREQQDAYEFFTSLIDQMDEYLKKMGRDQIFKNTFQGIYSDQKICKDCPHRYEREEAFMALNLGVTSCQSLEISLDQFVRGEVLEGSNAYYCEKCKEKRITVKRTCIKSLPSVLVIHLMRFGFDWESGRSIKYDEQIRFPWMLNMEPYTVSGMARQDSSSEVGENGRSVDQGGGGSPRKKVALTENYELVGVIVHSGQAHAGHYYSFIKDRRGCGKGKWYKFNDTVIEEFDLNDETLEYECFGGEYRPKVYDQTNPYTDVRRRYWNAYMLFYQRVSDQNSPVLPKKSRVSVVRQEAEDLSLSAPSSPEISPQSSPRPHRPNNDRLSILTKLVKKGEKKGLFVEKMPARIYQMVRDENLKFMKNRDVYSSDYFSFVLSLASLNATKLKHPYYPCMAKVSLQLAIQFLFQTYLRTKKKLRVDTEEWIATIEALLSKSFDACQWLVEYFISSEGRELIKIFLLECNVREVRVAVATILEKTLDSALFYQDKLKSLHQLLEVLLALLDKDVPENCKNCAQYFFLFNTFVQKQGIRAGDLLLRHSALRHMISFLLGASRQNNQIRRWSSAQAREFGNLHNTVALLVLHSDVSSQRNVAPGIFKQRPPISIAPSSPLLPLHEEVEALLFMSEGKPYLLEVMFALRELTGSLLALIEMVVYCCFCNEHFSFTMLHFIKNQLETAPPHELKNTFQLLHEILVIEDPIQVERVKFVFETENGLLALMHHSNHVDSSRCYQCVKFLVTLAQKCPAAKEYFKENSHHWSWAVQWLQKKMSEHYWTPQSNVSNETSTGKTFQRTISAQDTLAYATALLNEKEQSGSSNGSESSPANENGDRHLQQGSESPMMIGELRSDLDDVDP
USP10, sequence (Q14694 whole entry): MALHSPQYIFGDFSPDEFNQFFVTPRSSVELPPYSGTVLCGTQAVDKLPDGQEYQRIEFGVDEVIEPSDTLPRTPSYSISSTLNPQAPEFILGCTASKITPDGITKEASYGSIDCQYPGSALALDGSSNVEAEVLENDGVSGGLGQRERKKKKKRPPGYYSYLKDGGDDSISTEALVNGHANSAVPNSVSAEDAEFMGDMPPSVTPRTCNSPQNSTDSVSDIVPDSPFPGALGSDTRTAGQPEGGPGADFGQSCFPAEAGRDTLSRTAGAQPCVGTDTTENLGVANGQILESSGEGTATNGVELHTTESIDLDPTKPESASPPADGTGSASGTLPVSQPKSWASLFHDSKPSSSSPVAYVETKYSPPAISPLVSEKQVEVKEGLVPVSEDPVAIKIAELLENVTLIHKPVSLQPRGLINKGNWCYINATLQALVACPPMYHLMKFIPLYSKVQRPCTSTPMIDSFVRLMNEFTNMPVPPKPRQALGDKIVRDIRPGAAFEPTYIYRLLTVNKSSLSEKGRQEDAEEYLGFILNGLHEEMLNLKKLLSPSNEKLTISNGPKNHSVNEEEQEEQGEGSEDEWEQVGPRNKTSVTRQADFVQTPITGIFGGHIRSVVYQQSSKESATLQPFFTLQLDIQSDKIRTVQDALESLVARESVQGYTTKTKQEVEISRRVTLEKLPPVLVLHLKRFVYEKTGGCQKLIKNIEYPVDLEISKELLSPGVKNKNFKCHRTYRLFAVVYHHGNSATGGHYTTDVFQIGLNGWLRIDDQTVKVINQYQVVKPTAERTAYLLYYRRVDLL
USP7, sequence (Q93009 whole entry, species assumed): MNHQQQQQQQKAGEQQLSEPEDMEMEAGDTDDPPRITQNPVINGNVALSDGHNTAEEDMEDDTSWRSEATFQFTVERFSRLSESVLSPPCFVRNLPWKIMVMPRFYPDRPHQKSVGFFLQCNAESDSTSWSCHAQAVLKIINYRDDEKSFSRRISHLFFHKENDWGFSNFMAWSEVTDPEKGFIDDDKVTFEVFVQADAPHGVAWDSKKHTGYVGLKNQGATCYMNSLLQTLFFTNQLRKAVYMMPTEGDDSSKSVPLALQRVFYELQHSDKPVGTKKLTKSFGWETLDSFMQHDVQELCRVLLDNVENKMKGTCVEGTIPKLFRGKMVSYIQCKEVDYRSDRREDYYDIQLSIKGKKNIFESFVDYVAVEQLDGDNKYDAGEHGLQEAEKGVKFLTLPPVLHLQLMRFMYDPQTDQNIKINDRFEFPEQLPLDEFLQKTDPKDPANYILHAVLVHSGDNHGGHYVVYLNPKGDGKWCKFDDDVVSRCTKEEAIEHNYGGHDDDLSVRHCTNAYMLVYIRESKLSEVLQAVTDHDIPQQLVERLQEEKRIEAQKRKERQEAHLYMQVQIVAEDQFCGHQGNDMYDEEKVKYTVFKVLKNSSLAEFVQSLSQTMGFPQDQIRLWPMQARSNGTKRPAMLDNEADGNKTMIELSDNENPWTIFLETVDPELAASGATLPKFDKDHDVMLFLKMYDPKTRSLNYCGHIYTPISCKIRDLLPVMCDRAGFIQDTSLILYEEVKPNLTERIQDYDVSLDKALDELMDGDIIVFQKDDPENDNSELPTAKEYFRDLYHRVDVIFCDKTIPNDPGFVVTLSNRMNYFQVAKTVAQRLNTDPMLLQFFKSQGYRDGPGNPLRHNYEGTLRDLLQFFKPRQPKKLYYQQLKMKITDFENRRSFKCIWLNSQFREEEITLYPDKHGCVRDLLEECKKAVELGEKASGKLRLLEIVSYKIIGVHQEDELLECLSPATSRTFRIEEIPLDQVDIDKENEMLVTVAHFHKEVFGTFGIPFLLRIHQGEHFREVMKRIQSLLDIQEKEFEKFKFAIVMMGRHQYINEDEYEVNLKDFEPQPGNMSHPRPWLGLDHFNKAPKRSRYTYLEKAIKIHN

**Q.** Which results are given for CN1CCN(CCN2c3ccccc3Sc3ccc(C(=O)c4ccccc4)cc32)CC1 [USP24-i101, (10-(2-(4-Methylpiperazin-1-yl)ethyl)-10H-phenothiazin-2-yl)(phenyl)methanone]?
**A.** catalytic activity of recombinant purified USP24 proteins (USP24): had comparably catalytic activity to NCI699397; viability at 1 μg/mL [1]: 94%; viability at 5 μg/mL [1]: 80.5%; IC50 (HCC827-GR cells; read-out: IC50 of gefitinib in HCC827-GR with USP24-i101, 1 μg/mL of USP24-i101): 6.3 nM; IC50 (HCC827-GR cells; read-out: IC50 of gefitinib in HCC827-GR with USP24-i101, 5 μg/mL of USP24-i101): 3.1 nM

**Q.** Which results are given for CCCCNS(=O)(=O)c1ccc(NC(=O)c2ccc3ccccc3c2O)c([N+](=O)[O-])c1 [NCI158067]?
**A.** levels of Bax, BRD7 [2]: could decrease the levels; level of p300 [2]: could decrease the levels; catalytic activity of recombinant purified USP24 proteins (USP24): inhibited the catalytic activity; catalytic activity of USP7 (USP7): could inhibit; catalytic activity of USP10 (USP10): could inhibit; lung cancer migration (lung cancer): could inhibit lung cancer migration

**Q.** What does the source list for CC(=O)O[C@H]1C(=O)[C@@]2(C)[C@H]([C@H](OC(=O)c3ccccc3)[C@]3(O)C[C@H](OC(=O)[C@H](O)[C@@H](NC(=O)c4ccccc4)c4ccccc4)C(C)=C1C3(C)C)[C@]1(OC(C)=O)CO[C@@H]1C[C@@H]2O [taxol]?
**A.** accumulation of taxol inside the drug resistant cells, T24 (T24 cells [3]; loss of USP24 (knockdown)): 272.7 nM/1000 nM; accumulation of taxol inside the drug resistant cells, T24 (T24 cells [3]; without USP24 knockdown): 110.8 nM/1000 nM

**Q.** Which “concentration of taxol inside cells, with USP24 inhibitor” value (T24 cells [3]; under 1000 nM taxol treatment) does the source give for CN1CCN(CCCCN2c3ccccc3Sc3ccc(C(=O)c4ccccc4)cc32)CC1 [NCI677397, (10-(4-(4-Methylpiperazin-1-yl)butyl)-10H-phenothiazin-2-yl)(phenyl)methanone oxalate] here?
**A.** 321.36 nM

**Q.** And the “levels of Bax, BRD7” value [2]?
**A.** could decrease the levels

**Q.** What about the “level of p300” value [2] of the same compound?
**A.** could decrease the levels

**Q.** And the “catalytic activity of recombinant purified USP24 proteins” value (USP24)?
**A.** inhibited the catalytic activity

**Q.** What about the “specificity in blocking USP24 enzyme activity” value (USP24; versus USP7, USP9x, USP10) of the same compound?
**A.** higher specificity

**Q.** And the “catalytic activity of USP7” value (USP7)?
**A.** could not block

**Q.** And the “catalytic activity of USP9x” value (USP9x)?
**A.** could not block

**Q.** And the “catalytic activity of USP10” value (USP10)?
**A.** could not block

**Q.** What about the “drug resistance induced by taxol in lung cancer” value (T24 cells [4]) of the same compound?
**A.** could significantly block the drug resistance

**Q.** And the “drug resistance induced by TMZ in brain cancer” value (TMZR)?
**A.** could significantly block the drug resistance

**Q.** And the “drug resistance induced by Camptothecin in NPC” value (Hone-1 CPT-R)?
**A.** could significantly block the drug resistance

**Q.** And the “drug resistance induced by oxaliplatin in colorectal cancer” value (HCT116OX5)?
**A.** could significantly block the drug resistance

**Q.** And the “level of P-gp” value (P-gp)?
**A.** could decrease the level of P-gp

**Q.** And the “T24 sphere formation ability” value (T24 cells [5])?
**A.** inhibit the T24 sphere formation ability

**Q.** And the “cytotoxicity of taxol in the inhibition of cancer size and weight” value (T24)?
**A.** increased the cytotoxicity of taxol in the inhibition of cancer size and weight

**Q.** What about the lung cancer migration (lung cancer) of the same compound?
**A.** could inhibit lung cancer migration

**Q.** And the EMT markers (EMT markers)?
**A.** inhibited

**Q.** What about the body weight [6] of the same compound?
**A.** did not affect the body weight

**Q.** With CCC[C@H](NC(=O)/C(C#N)=C/c1cccc(Br)n1)c1ccccc1 [WP1130, reference compound] as the compound, how does the “inhibition of the substrates of USP24 in lung cancer” value ([2]; FIG. 4C) read?
**A.** could not inhibit
